Values after ≈ are worked out from the molar mass of the structure shown. Active and inactive are the calls of the source. The calls are words filed in the database; no cut-off is given here.
Tests used:
[1] = molecular target: T1, Cholinesterase (Homo sapiens, UniProt P06276); assay: Inhibition of BChE (unknown origin) using butyryl thiocholine iodide as substrate at 0.25 mM after 30 mins by Ellman's method
[2] = molecular target: T2, Acetylcholinesterase (Homo sapiens, UniProt P22303); assay: Inhibition of AChE (unknown origin) using acetyl thiocholine iodide as substrate at 0.25 mM after 30 mins by Ellman's method
[3] = molecular target: T2, Acetylcholinesterase; assay: Inhibition of AChE (unknown origin) using acetyl thiocholine iodide as substrate after 30 mins by Ellman's method
[4] = molecular target: T1, Cholinesterase; assay: Inhibition of BChE (unknown origin) using butyryl thiocholine iodide as substrate after 30 mins by Ellman's method
[5] = test system: Escherichia coli; assay: Antibacterial activity against Escherichia coli DH5[alpha] at 1 mg/ml after 24 hrs by agar-well diffusion method; type: functional; settings: read-out: IZ
[6] = test system: Staphylococcus aureus; assay: Antibacterial activity against Staphylococcus aureus after 18 to 24 hrs by Micro-titer assay; type: functional
[7] = test system: Pseudomonas aeruginosa; assay: Antibacterial activity against Pseudomonas aeruginosa at 1 mg/ml after 24 hrs by agar-well diffusion method; type: functional; settings: for zone of inhibition at 1000 µg/mL: read-out: IZ
[8] = test system: Pseudomonas aeruginosa; assay: Antibacterial activity against Pseudomonas aeruginosa after 18 to 24 hrs by Micro-titer assay; type: functional
[9] = test system: Staphylococcus aureus; assay: Antibacterial activity against Staphylococcus aureus at 1 mg/ml after 24 hrs by agar-well diffusion method; type: functional; settings: read-out: IZ
[10] = test system: Escherichia coli; assay: Antibacterial activity against Escherichia coli 5604 at 1 mg/ml after 24 hrs by agar-well diffusion method; type: functional, organism-based
[11] = test system: Escherichia coli; assay: Antibacterial activity against Escherichia coli DH5[alpha] after 18 to 24 hrs by Micro-titer assay; type: functional
[12] = test system: Escherichia coli; assay: Antibacterial activity against Escherichia coli DG2 at 1 mg/ml after 24 hrs by agar-well diffusion method; type: functional, organism-based
[13] = test system: Vibrio cholerae; assay: Antibacterial activity against Vibrio cholerae at 1 mg/ml after 24 hrs by agar-well diffusion method; type: functional, organism-based
[14] = test system: Salmonella typhi; assay: Antibacterial activity against Salmonella typhi at 1 mg/ml after 24 hrs by agar-well diffusion method; type: functional, organism-based; settings: Salmonella enterica subsp. enterica serovar Typhi
[15] = molecular target: T2, Acetylcholinesterase; assay: Inhibition of AChE (unknown origin) using acetyl thiocholine iodide as substrate at 0.5 mM after 30 mins by Ellman's method
[16] = molecular target: T1, Cholinesterase; assay: Inhibition of BChE (unknown origin) using butyryl thiocholine iodide as substrate at 0.5 mM after 30 mins by Ellman's method
[17] = molecular target: T2, Acetylcholinesterase; assay: Inhibition of AChE (unknown origin) using acetyl thiocholine iodide as substrate at 0.125 mM after 30 mins by Ellman's method
[18] = molecular target: T1, Cholinesterase; assay: Inhibition of BChE (unknown origin) using butyryl thiocholine iodide as substrate at 0.125 mM after 30 mins by Ellman's method

T1 sequence (P06276 whole entry): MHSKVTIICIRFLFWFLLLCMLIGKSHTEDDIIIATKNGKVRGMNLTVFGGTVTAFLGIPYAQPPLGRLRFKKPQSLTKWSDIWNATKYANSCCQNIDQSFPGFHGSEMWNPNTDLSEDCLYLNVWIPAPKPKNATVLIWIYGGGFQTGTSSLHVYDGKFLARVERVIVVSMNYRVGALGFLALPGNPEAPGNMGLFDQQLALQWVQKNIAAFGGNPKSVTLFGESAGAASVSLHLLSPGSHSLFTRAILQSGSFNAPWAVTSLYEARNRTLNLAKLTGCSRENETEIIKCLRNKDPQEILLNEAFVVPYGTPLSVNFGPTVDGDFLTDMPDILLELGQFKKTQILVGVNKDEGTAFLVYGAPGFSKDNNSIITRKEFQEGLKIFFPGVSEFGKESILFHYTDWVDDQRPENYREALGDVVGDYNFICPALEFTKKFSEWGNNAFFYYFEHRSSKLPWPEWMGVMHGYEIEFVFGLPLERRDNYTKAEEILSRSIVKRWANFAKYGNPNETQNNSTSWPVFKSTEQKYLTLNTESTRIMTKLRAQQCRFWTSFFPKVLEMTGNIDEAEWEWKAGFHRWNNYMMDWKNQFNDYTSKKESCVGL
T2 sequence (P22303 whole entry): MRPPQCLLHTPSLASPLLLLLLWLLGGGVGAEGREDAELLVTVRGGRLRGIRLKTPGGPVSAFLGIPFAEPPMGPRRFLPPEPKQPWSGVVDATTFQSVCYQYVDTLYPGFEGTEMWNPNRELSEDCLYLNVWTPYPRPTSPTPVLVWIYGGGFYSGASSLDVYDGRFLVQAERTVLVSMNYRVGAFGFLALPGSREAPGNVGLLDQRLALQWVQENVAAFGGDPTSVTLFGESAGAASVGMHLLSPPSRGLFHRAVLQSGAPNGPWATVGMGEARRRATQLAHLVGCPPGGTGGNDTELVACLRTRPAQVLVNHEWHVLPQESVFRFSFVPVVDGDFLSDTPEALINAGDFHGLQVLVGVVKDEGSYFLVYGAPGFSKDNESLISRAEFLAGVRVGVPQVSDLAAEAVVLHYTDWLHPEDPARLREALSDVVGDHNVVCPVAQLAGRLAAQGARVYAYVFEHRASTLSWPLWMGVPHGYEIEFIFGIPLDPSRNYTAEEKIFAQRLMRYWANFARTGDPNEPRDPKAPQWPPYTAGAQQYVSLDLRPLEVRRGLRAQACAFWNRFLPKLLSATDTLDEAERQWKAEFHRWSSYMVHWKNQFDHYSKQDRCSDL

CNC(=O)Oc1ccc2c(c1)[C@]1(C)CCN(C)[C@@H]1N2C was tested, and the inhibition [1] was 92.5% and the inhibition [2] was 92.5%.

With O=C1NC(=S)NC(=O)C1=CNNC(=S)Nc1ccc(Cl)cc1 the IC50 [3] was 121.11 µmol, the inhibition [1] was 81.6% and the IC50 [4] was 75.41 µmol. The zone of inhibition at 1000 µg/mL [5] was 14 mm, the MIC [6] was 100 µg/mL (≈ 281 µM) and the “inhibition zone (IZ)” value [7] was “inactive”. The inhibition [2] was 62%, the MIC [8] was 400 µg/mL (≈ 1120 µM) and the zone of inhibition at 1000 µg/mL [9] was 15 mm. For the same molecule, the “inhibition zone (IZ)” value [10] was “inactive”, the MIC [11] was 200 µg/mL (≈ 562 µM) and the “inhibition zone (IZ)” value [12] was “inactive”. The “inhibition zone (IZ)” value [13] was “inactive” and the “inhibition zone (IZ)” value [14] was “inactive”.

With NC(=S)NNC=C1C(=O)NC(=O)NC1=O the IC50 [3] was 119.11 µmol, the inhibition [1] was 87.5% and the IC50 [4] was 56.51 µmol. The inhibition [2] was 65.8%.

Work on O=C1NC(=O)C(=CNNC(=S)Nc2cccc(C(F)(F)F)c2)C(=O)N1 yielded an IC50 [3] of 40.78 µmol, an IC50 [4] of 136.91 µmol and an inhibition [15] of 83.3%. The inhibition [16] was 75.9%.

For COc1ccc(NC(=S)NNC=C2C(=O)NC(=S)NC2=O)cc1, the IC50 [3] was 206.31 µmol, the inhibition [1] was 85.4% and the IC50 [4] was 56.81 µmol. The inhibition [2] was 59.1%.

CC(=O)NC=C1C(=O)NC(=O)NC1=O gave an IC50 [3] of 90.91 µmol, an inhibition [1] of 88.3% and an IC50 [4] of 116.61 µmol. The zone of inhibition at 1000 µg/mL [5] was 15 mm, the MIC [6] was 100 µg/mL (≈ 507 µM) and the zone of inhibition at 1000 µg/mL [7] was 18 mm. For the same molecule, the inhibition [2] was 77.7%, the MIC [8] was 200 µg/mL (≈ 1010 µM) and the zone of inhibition at 1000 µg/mL [9] was 18 mm. For the same molecule, the “inhibition zone (IZ)” value [10] was “inactive”, the MIC [11] was 100 µg/mL (≈ 507 µM) and the “inhibition zone (IZ)” value [12] was “inactive”. For the same molecule, the “inhibition zone (IZ)” value [13] was “inactive” and the “inhibition zone (IZ)” value [14] was “inactive”.

Cc1cccc(Cl)c1NC(=S)NNC=C1C(=O)NC(=O)NC1=O showed an IC50 [4] of 8.81 µmol, an inhibition [15] of 49.4% and an inhibition [16] of 75.8%.

For O=C1NC(=S)NC(=O)C1=CNNC(=S)Nc1ccc(F)cc1, the IC50 [3] was 78.41 µmol, the inhibition [1] was 88.8% and the IC50 [4] was 57.81 µmol. For the same molecule, the inhibition [2] was 86.9%.

O=C1NC(=S)NC(=O)C1=CNNC(=S)Nc1ccc(C(F)(F)F)cc1 was tested, and the IC50 [3] was 99.41 µmol, the inhibition [1] was 78.2% and the IC50 [4] was 8.11 µmol. For the same molecule, the inhibition [2] was 75.6%.

Work on O=C(NNC=C1C(=O)NC(=S)NC1=O)Nc1ccccc1 yielded an IC50 [3] of 74.21 µmol, an IC50 [4] of 3.31 µmol and an inhibition [17] of 66.8%. For the same molecule, the inhibition [18] was 85.1%.

Work on O=C1NC(=S)NC(=O)C1=CNNC(=S)Nc1ccc(Br)cc1 yielded an IC50 [3] of 79.21 µmol, an inhibition [1] of 84.5% and an IC50 [4] of 68.41 µmol. The inhibition [2] was 80.4%.

In the case of N#Cc1ccc(NC(=S)NNC=C2C(=O)NC(=O)NC2=O)cc1, the inhibition [1] is reported as 66.8%, the IC50 [4] is reported as 231.61 µmol and the inhibition [2] is reported as 11.4%.

For O=C1NC(=S)NC(=O)C1=CNNC(=S)Nc1ccccc1, the IC50 [3] was 115.11 µmol, the inhibition [1] was 83.2% and the IC50 [4] was 57.11 µmol. It also gave an inhibition [2] of 73.2%.

O=C1NC(=O)C(=CNNC(=O)Nc2ccccc2)C(=O)N1 showed an IC50 [4] of 38.51 µmol, an inhibition [17] of 39.6% and an inhibition [18] of 79.2%.

O=C(N[C@H](CO)[C@H](O)c1ccc([N+](=O)[O-])cc1)C(Cl)Cl [CHLORAMPHENICOL] was tested, and the zone of inhibition at 1000 µg/mL [5] was 25 mm, the MIC [6] was under 0.78 µg/mL and the zone of inhibition at 1000 µg/mL [7] was 25 mm. The MIC [8] was 1.56 µg/mL (≈ 4.83 µM), the zone of inhibition at 1000 µg/mL [9] was 25 mm and the “inhibition zone (IZ)” value [10] was “inactive”. The MIC [11] was 1.56 µg/mL (≈ 4.83 µM), the “inhibition zone (IZ)” value [12] was “inactive” and the “inhibition zone (IZ)” value [13] was “inactive”. The “inhibition zone (IZ)” value [14] was “inactive”.
